In patent publication US11192888B2, “Antibacterial compounds” (priority 2017, dated 2021):
≈ marks a conversion by molar mass, not a printed value. Read-outs that look alike come from different tables or passages of the source. *1 amine or outer side, *2 acyl side, *3 side chain or, on linkers, in order; H or OH if unused. Where a SMILES comes first, the peptide text is derived from it. [ ]: non-standard residue; d: D form. dAla(ψthiazole) = C[C@@H](N[*:1])c1nc(C(=O)[*:2])cs1; Trp(4-Br) = N[C@@H](Cc1c[nH]c2cccc(Br)c12)C(=O)O; Trp(4-Cl) = N[C@@H](Cc1c[nH]c2cccc(Cl)c12)C(=O)O; Trp(4-OMe) = COc1cccc2[nH]cc(C[C@H](N)C(=O)O)c12; X1 = O=C(/C(=C/c1ccccc1)N[*:1])[*:2]; X2 = CC(C)/C=C(\N[*:1])C(=O)[*:2]; ΔVal = CC(C)=C(N)C(=O)O; Dha = C=C(N)C(=O)O; Sar = CNCC(=O)O

Legend:
P. aeruginosa PAO1 = conditions: for activity against P. aeruginosa in comparison to the Dha containing compound 3: PAO1; for IC50 / % Growth inhibition at 100 μM: PAO1, 13 h
B. multivorans ATCC17616 = conditions: for IC50: ATCC17616, 25 h
[1] = test system: clinical isolates and one wild-type strain of P. aeruginosa; assay: Growth of P. aeruginosa clinical isolates and wild-type strain with compounds (FIG. 1); assay type: cell-based, Pseudomonas aeruginosa; conditions: isolates W4, W14, W23, W46 and PAO1; MH media, 13 hours (FIG. 1)
Experimental: FIGS. 1a and 1b are graphs showing the effects of varying concentrations of compounds 2 and 3 according to the invention on the growth of different strains of P. aeruginosa in Müller-Hinton (MH) media, after 13 hours.
The antibacterial activity of compounds 2 and 3 were tested against clinical isolates and one wild-type strain of P. aeruginosa displaying varying antibiotic sensitivity.
The antibacterial activity of compounds 2 and 3 were tested against these clinical isolates and one wild-type strain of P. aeruginosa.

B. cepasia ATCC25416 = assay: Growth of Burkholderia with compound (FIG. 3), B. cepasia; assay type: cell-based; conditions: FIG. 3, LB broth, 17 hours
Experimental: (§1) FIG. 3 is a graph showing the effect of varying concentrations of compound 3 according to the invention on the growth of Burkholderia in Lysogeny broth (LB broth) after 17 hours.
(§2) Compound 3 was tested to determine its antibacterial activity against B. multivorans, B. cepasia and B. vietnamiensis.

B. vietnamiensis J2863 = assay: Growth of Burkholderia with compound (FIG. 3), B. vietnamiensis; assay type: cell-based; conditions: FIG. 3, LB broth, 17 hours
Experimental: as §1, §2

[2] = test system: Clostridium difficile ATCC 43255; assay: CLSI MIC, representative gut bacteria; assay type: cell-based; conditions: Clostridium difficile ATCC 43255
Experimental: (§3) Comparative in vitro bacterial susceptibility to compounds 3, 9 and 10, vancomycin and metronidazole was determined using methods according to the Clinical and Laboratory Standard Institute (CLSI) approved guidelines (M7-A10, M11-A7 or M45-A2) for anaerobic and aerobic organisms.

[3] = test system: Clostridium sordellii ATCC 9714; assay: CLSI MIC, representative gut bacteria; assay type: cell-based
Experimental: as §3

[4] = Experimental: In this study, a single oral dose of compound 3 in 0.5% w/v aqueous methylcellulose at 5 mg/kg was administered to nine mice in a 10 mL/kg dosing volume and housed in metabolism cages. Following administration of the compound, serial blood samples of 50 μL was taken from the lateral tail vein at each of 7 post-dosing time-points (0.25, 0.5, 1, 2, 4, 7 and 24 h). Whole blood samples were then diluted 1:1 with water and two 40 μL aliquots were pipetted into duplicate 96 well plate tubes. At the end of 24 h, all faecal samples were collected and pooled. A quantitative bioanalysis by LC-MS/MS of the blood and faecal levels of compound 3 was carried out to determine the oral absorbability and gastrointestinal metabolic stability of compound 3.
To evaluate the metabolic stability of orally administered compound 3, metabolite profiling of the faecal sample was performed.

[5] = test system: Clostridium difficile 630Δerm; conditions: 13 h
Strep. pyogenes = conditions: 13 h
Strep. agalactiae = conditions: 13 h
[6] = test system: Clostridium perfringens NCTC 8237
[7] = test system: Bacteroides fragilis ATCC 25285; conditions: ATCC 25285
[8] = test system: Clostridium ramosum DSM 1402
[9] = test system: Clostridium innocuum DSM 1286
[10] = test system: Propionibacterium acnes ATCC 6919
[11] = test system: Bifidobacterium bifidum ATCC 11863
[12] = test system: Bifidobacterium breve ATCC 15700
[13] = test system: Actinomyces viscosus DSM 43327
[14] = test system: Corynebacterium jeikeium NCTC 11914
[15] = test system: Corynebacterium urealyticum NCTC 12011
[16] = test system: Corynebacterium striatium NCTC 764
[17] = test system: Lactobacillus rhamnosus ATCC 53103
[18] = test system: Enterococcus faecalis ATCC 29212
[19] = test system: Enterococcus faecium NCTC 12204
[20] = test system: Staphylococcus aureus ATCC 29213
[21] = test system: Pseudomonas aeruginosa ATCC 27853
[22] = test system: Pseudomonas aeruginosa NCTC 13437
[23] = test system: Escherichia coli ATCC 25922
[24] = test system: Enterobacter cloacae NCTC 13406
[25] = test system: Citrobacter koseri Clinical
[26] = test system: Proteus mirabilis DSM 30116
[27] = test system: C. difficile ATCC 43255 (aka VPI 10463; ribotype 087); assay: Mouse model of C. difficile-associated disease; assay type: in vivo, C57BL/6 mice
[28] = amide bond, 24-membered ring, PyBOP/HOBt/DIPEA, 0.5 mM

With `C[C@H]1NC(=O)CNC(=O)[C@H](Cc2c[nH]c3cccc(Br)c23)NC(=O)[C@H](Cc2c[nH]c3ccccc23)NC(=O)c2csc(n2)[C@@H](C)NC(=O)CN(C)C(=O)/C(=C/c2ccccc2)NC1=O` [Compound 12, Cyclo[D-Ala-Thz-Trp-Trp(4-Br)-Gly-D-Ala-Dhp-Sar]] (cyclo(G[dA][X1][Sar][dAla(ψthiazole)]W[Trp(4-Br)])) the “activity against P. aeruginosa in comparison to the Dha containing compound 3” value (“activity against P. aeruginosa” below) (P. aeruginosa PAO1) was “dramatic loss in activity”, the IC50 (P. aeruginosa PAO1) was over 100 µM and the “% Growth inhibition at 100 μM” value (P. aeruginosa PAO1) was 20.1 ± 5.4%. The IC50 (B. multivorans ATCC17616) was 1.1 ± 0.2 µM.
For `CC(C)=C1NC(=O)[C@@H](C)NC(=O)CNC(=O)[C@H](Cc2c[nH]c3cccc(Br)c23)NC(=O)[C@H](Cc2c[nH]c3ccccc23)NC(=O)c2csc(n2)[C@@H](C)NC(=O)CN(C)C1=O` [Compound 13, Cyclo[D-Ala-Thz-Trp-Trp(4-Br)-Gly-D-Ala-Dhv-Sar]] (cyclo(G[dA][ΔVal][Sar][dAla(ψthiazole)]W[Trp(4-Br)])), the “activity against P. aeruginosa” value (P. aeruginosa PAO1) was “did not result in a notable change in activity”, the IC50 (P. aeruginosa PAO1) was 12.2 ± 0.2 µM and the “% Growth inhibition at 100 μM” value (P. aeruginosa PAO1) was 85.1 ± 3.4%. For the same compound, the IC50 (B. multivorans ATCC17616) was 1.54 ± 0.2 µM.
With `C=C1NC(=O)[C@@H](C)NC(=O)CNC(=O)[C@H](Cc2c[nH]c3cccc(Br)c23)NC(=O)[C@H](Cc2c[nH]c3ccccc23)NC(=O)c2csc(n2)[C@@H](C)NC(=O)CN(C)C1=O` [Compound 3, Cyclo[D-Ala-Thz-Trp-Trp(4-Br)-Gly-D-Ala-Dha-Sar]] (cyclo([Dha][Sar][dAla(ψthiazole)]W[Trp(4-Br)]G[dA])) the “susceptibility of the isolates to the compound” value [1] was “equally susceptible”, the “antibacterial activity (growth decrease)” value (B. cepasia ATCC25416) was “highly active” and the “antibacterial activity (growth decrease)” value (B. vietnamiensis J2863) was “highly active”. The MIC [2] was 1.0 µg/mL (≈ 1.14 µM), the MIC [3] was 32 µg/mL (≈ 36.6 µM) and the “share of the mass of compounds detected in pooled faecal sample that corresponds to the compound” value ([4]; LC-MS metabolite profiling, above control sample) was 85%. The “compound recovered from pooled faeces” value ([4]; oral 5 mg/kg, mice, 24 h) was 63%, the “systemic exposure (blood)” value ([4]; single oral dose 5 mg/kg, mice, over 24 h) was “undetectable” and the IC50 (P. aeruginosa PAO1) was 13.2 ± 3.2 µM. For the same compound, the “% Growth inhibition at 100 μM” value (P. aeruginosa PAO1) was 85.7 ± 0.6%, the IC50 (B. multivorans ATCC17616) was 1.6 ± 1.4 µM and the “antibacterial activity (growth decrease)” value (B. multivorans ATCC17616; FIG. 3, LB broth, 17 hours) was “highly active”. It also gave an IC50 [5] of 0.13 ± 0.02 µM, an IC50 (Strep. pyogenes) of over 100 µM and an IC50 (Strep. agalactiae) of over 100 µM. It also gave an MIC [6] of over 64 µg/mL, an MIC [7] of over 64 µg/mL and an MIC [8] of over 64 µg/mL. For the same compound, the MIC [9] was over 64 µg/mL, the MIC [10] was over 64 µg/mL and the MIC [11] was over 64 µg/mL. It also gave an MIC [12] of over 64 µg/mL, an MIC [13] of 64 µg/mL (≈ 73.2 µM) and an MIC [14] of over 64 µg/mL. For the same compound, the MIC [15] was over 64 µg/mL, the MIC [16] was over 64 µg/mL and the MIC [17] was over 64 µg/mL. For the same compound, the MIC [18] was over 64 µg/mL, the MIC [19] was over 64 µg/mL and the MIC [20] was over 64 µg/mL. For the same compound, the MIC [21] was over 64 µg/mL, the MIC [22] was over 64 µg/mL and the MIC [23] was over 64 µg/mL. For the same compound, the MIC [24] was over 64 µg/mL, the MIC [25] was over 64 µg/mL and the MIC [26] was over 64 µg/mL.
In the case of `C=C1NC(=O)[C@@H](C)NC(=O)CNC(=O)[C@H](Cc2c[nH]c3cccc(OC)c23)NC(=O)[C@H](Cc2c[nH]c3ccccc23)NC(=O)c2csc(n2)[C@@H](C)NC(=O)CN(C)C1=O` [Argyrin A, Cyclo[D-Ala-Thz-Trp-Trp(4-MeO)-Gly-D-Ala-Dha-Sar], reference compound] (cyclo(W[Trp(4-OMe)]G[dA][Dha][Sar][dAla(ψthiazole)])), the IC50 (P. aeruginosa PAO1) is reported as 19.8 ± 1.6 µM, the “% Growth inhibition at 100 μM” value (P. aeruginosa PAO1) is reported as 82.6 ± 7.4% and the IC50 (B. multivorans ATCC17616) is reported as 3.1 ± 1.7 µM.
For `C=C1NC(=O)[C@@H](C)NC(=O)CNC(=O)[C@H](Cc2c[nH]c3cccc(Cl)c23)NC(=O)[C@H](Cc2c[nH]c3ccccc23)NC(=O)c2csc(n2)[C@@H](C)NC(=O)CN(C)C1=O` [Compound 2, Cyclo[D-Ala-Thz-Trp-Trp(4-Cl)-Gly-D-Ala-Dha-Sar]] (cyclo([Dha][Sar][dAla(ψthiazole)]W[Trp(4-Cl)]G[dA])), the “susceptibility of the isolates to the compound” value [1] was “equally susceptible”, the IC50 (P. aeruginosa PAO1) was 16.8 ± 2.9 µM and the “% Growth inhibition at 100 μM” value (P. aeruginosa PAO1) was 87.0 ± 1.0%. For the same compound, the IC50 (B. multivorans ATCC17616) was 2.9 ± 2.5 µM, the IC50 [5] was 0.18 ± 0.03 µM and the IC50 (Strep. pyogenes) was over 100 µM. For the same compound, the IC50 (Strep. agalactiae) was over 100 µM.
In the case of `CCc1c(Cl)c(O)c(Cl)c(O)c1C(=O)O[C@H]1[C@H](O)[C@H](OC)[C@H](OC/C2=C\C=C\C[C@H](O)/C(C)=C/[C@H](CC)[C@@H](O[C@@H]3OC(C)(C)[C@@H](OC(=O)C(C)C)[C@H](O)[C@@H]3O)/C(C)=C/C(C)=C/C[C@@H]([C@@H](C)O)OC2=O)O[C@@H]1C` [Fidaxomicin, reference compound], the “survival to the end of the study at day-21 post-infection” value ([27]; 2.5 mg/kg) is reported as “survived to the end of the study” and the Mean survival ([27]; 2.5 mg/kg oral BD for 5 days) is reported as 504.00 h.
Compound `C[C@H]1NC(=O)CNC(=O)[C@H](Cc2c[nH]c3cccc(Br)c23)NC(=O)[C@H](Cc2c[nH]c3ccccc23)NC(=O)c2csc(n2)[C@@H](C)NC(=O)CN(C)C(=O)/C(=C/c2ccccc2)NC1=O` [Cyclo[D-Ala-Thz-Trp-Trp(4-Br)-Gly-D-Ala-Dhp-Sar]] has a ring closure, yield after HPLC ([28]; from H-dAla-Thz-Trp-Trp(4-Br)-Gly-dAla-Dhp-Sar-OH?) of 35%.
In the case of `C=C1NC(=O)[C@@H](C)NC(=O)CNC(=O)[C@H](Cc2c[nH]c3cccc(Cl)c23)NC(=O)[C@H](Cc2c[nH]c3ccccc23)NC(=O)c2csc(n2)[C@@H](C)NC(=O)CN(C)C1=O` [Cyclo[D-Ala-Thz-Trp-Trp(4-C1)-Gly-D-Ala-Dha-Sar]], the ring closure, yield after HPLC ([28]; from H-dAla-Thz-Trp-Trp(4-Cl)-Gly-dAla-Dha-Sar-OH?) is reported as 5%.
For `c1cc(-c2nc3ccc(-c4ccc5nc(-c6ccncc6)[nH]c5c4)cc3[nH]2)ccn1` [SMT19969, reference compound], the Mean survival ([27]; 20 mg/kg oral BD for 5 days) was 88.00 h.
With `CC(C)/C=C1\NC(=O)[C@@H](C)NC(=O)CNC(=O)[C@H](Cc2c[nH]c3cccc(Br)c23)NC(=O)[C@H](Cc2c[nH]c3ccccc23)NC(=O)c2csc(n2)[C@@H](C)NC(=O)CN(C)C1=O` [Compound 14, Cyclo[D-Ala-Thz-Trp-Trp(4-Br)-Gly-D-Ala-Dhl-Sar]] (cyclo(G[dA][X2][Sar][dAla(ψthiazole)]W[Trp(4-Br)])) the “activity against P. aeruginosa” value (P. aeruginosa PAO1) was “dramatic loss in activity”, the IC50 (P. aeruginosa PAO1) was over 100 µM and the “% Growth inhibition at 100 μM” value (P. aeruginosa PAO1) was 40.1 ± 6.8%. It also gave an IC50 (B. multivorans ATCC17616) of 0.98 ± 0.1 µM.
`C=C1NC(=O)[C@@H](C)NC(=O)CNC(=O)[C@H](Cc2c[nH]c3ccc(Cl)c(Cl)c23)NC(=O)[C@H](Cc2c[nH]c3ccccc23)NC(=O)c2csc(n2)[C@@H](C)NC(=O)CN(C)C1=O` [Cyclo[D-Ala-Thz-Trp-Trp(4,5-C1)-Gly-D-Ala-Dha-Sar]] gave a ring closure, yield after HPLC ([28]; from H-dAla-Thz-Trp-Trp(4,5-Cl)-Gly-dAla-Dha-Sar-OH?) of 2%.
